Among the data in ChEMBL document CHEMBL5321223, “Effects and mechanism of action of Chrysanthemum morifolium (Jinsi Huangju) on hyperlipidemia and non-alcoholic fatty liver disease” (Eur J Med Chem, 2023) are Activity and inhibition values, retold here.

One may read the inhibition as the drop in the measured response relative to a control, in per cent.

The subject of series [1] is HepG2. Nature of the series: Hypolipidemic activity in sodium oleate and sodium palmitate induced human HepG2 cells assessed as decrease in intracellular lipid content at 50 uM by Oil Red O staining based assay. The series is classed as functional. Set-up: scale not given: the % may be the effect or the level left.
The subject of series [2] is HepG2. As to the kind of experiment: Hypolipidemic activity in sodium oleate and sodium palmitate induced human HepG2 cells assessed as decrease in intracellular lipid content at 0.025 mg/ml by Oil Red O staining based assay. The series is classed as functional. Set-up: scale not given: the % may be the effect or the level left.
Series [3] concerns HepG2. As to the kind of experiment: Hypolipidemic activity in sodium oleate and sodium palmitate induced human HepG2 cells assessed as decrease in intracellular lipid content at 5 uM by Oil Red O staining based assay. Set-up: scale not given: the % may be the effect or the level left. The series is classed as functional.
In series [4] the target is T1, Pancreatic triacylglycerol lipase (Homo sapiens) (UniProt P16233).
T1 sequence (whole entry): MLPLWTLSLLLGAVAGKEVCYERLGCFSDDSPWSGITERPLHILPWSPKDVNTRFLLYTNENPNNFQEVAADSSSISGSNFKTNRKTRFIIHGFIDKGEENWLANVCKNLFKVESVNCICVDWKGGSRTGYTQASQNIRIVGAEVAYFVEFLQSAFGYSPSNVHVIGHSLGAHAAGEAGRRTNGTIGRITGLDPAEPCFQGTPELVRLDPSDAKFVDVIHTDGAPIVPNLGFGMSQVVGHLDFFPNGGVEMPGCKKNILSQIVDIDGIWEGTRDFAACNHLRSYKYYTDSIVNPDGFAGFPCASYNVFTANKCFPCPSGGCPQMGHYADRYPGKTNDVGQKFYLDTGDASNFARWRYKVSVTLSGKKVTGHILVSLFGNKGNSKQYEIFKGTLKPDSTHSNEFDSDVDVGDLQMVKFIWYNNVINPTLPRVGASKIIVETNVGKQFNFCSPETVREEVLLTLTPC
As to the kind of experiment: Inhibition of Pancreatic lipase (unknown origin) using 4-methylumbelleallyl oleate as substrate at 50 uM by microplate reader assay.

In series [5] the target is T1, Pancreatic triacylglycerol lipase (Homo sapiens). Nature of the series: Inhibition of Pancreatic lipase (unknown origin) using 4-methylumbelleallyl oleate as substrate at 5 uM by microplate reader assay.
For series [6], the system named is HepG2. As to the kind of experiment: Cytotoxicity against human HepG2 cells assessed as reduction in cell survival at 50 uM. Particulars: hepg2, 50 µM. The series is classed as toxicity, cell-based.

Take `CC[C@H](C)C(=O)O[C@H]1C[C@@H](C)C=C2C=C[C@H](C)[C@H](CC[C@@H]3C[C@@H](O)CC(=O)O3)[C@H]21` [LOVASTATIN]: the Activity in the series with HepG2 [1] is 89.3%; in the series with HepG2 [2], 97%; in the series with HepG2 [3], 76.9%.
For `O=c1cc(-c2ccc(O)cc2)oc2cc(O[C@@H]3O[C@H](CO)[C@@H](O)[C@H](O)[C@H]3O)cc(O)c12` [APIGETRIN], the Activity in the series with HepG2 [1] is given as 97.7%; in the series with HepG2 [3] it was 95.1%; in the series with HepG2 [6], “Non-Toxic”. Besides, the values for the inhibition in series [4] and in series [5] were 59.1% and 13.2%, respectively.
The corresponding values for `O=c1cc(-c2ccc(O)c(O)c2)oc2cc(O[C@@H]3O[C@H](CO)[C@@H](O)[C@H](O)[C@H]3O)cc(O)c12` [GALUTEOLIN] are 53.2%, 62.5%, “Non-Toxic”, 49.5% and 18.1%.
